Reference: paper PMC2818328 (Bioorganic & medicinal chemistry letters, 2009)

Legend:
GCPII = GCPII (Homo sapiens, UniProt Q04609); assay: fluorescence-based NAALADase assay, in vitro GCPII inhibitory activity; settings: relative to 32a
[1] = test system: inflammatory and neuropathic pain models; settings: cited from earlier work
cloned human GCPII = settings: cited from earlier work

Chain of GCPII (Q04609 whole entry): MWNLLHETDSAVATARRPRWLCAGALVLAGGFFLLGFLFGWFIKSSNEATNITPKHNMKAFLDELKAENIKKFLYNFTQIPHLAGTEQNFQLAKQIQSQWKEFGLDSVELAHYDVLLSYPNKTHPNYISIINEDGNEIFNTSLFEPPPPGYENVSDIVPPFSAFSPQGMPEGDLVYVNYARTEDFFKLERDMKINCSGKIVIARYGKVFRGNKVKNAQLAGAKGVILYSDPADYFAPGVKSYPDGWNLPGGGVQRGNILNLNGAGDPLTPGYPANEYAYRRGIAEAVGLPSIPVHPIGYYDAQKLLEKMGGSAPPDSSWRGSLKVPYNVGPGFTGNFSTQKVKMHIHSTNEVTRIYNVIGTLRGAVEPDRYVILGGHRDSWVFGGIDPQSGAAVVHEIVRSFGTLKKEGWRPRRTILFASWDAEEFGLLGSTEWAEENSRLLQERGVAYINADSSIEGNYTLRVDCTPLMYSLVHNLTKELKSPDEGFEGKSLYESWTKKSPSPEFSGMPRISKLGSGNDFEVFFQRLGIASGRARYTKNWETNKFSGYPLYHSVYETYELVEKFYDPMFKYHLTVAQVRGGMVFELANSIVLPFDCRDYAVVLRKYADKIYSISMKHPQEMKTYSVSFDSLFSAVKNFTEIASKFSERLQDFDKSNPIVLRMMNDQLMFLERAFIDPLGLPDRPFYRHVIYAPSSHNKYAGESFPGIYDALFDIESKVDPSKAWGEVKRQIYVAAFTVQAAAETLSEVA

SMILES	fold stronger binding affinity for GCPII compared to 32a (GCPII)	penetration of the blood-brain barrier [1]	analgesic activity ([1]; high doses (50–100 mg/kg) needed)	Ki (cloned human GCPII)
C=CC[C@H](NC(=O)N[C@@H](CCCCNC(=O)c1ccc(I)cc1)C(=O)O)C(=O)O [32d]	120 fold	–	–	–
O=C(N[C@@H](CCCCNC(=O)c1ccc(I)cc1)C(=O)O)NC1(C(=O)O)CC1 [32c]	4 fold	–	–	–
CC(C)C[C@H](NC(=O)N[C@@H](CCC(=O)O)C(=O)O)C(=O)O [ZJ-43, (S)-2-(3-((S)-1-carboxy-3-methylbutyl)ureido)pentanedioic acid]	–	low penetration	demonstrated analgesic activity	800 pM
